Data set [1] in a line: reductive cleavage / release of lenalidomide in a model study. Type of data set: in vitro ADME. Particulars: reduction. From the text:
The nitro group of para-nitrobenzyloxymethyl lenalidomide cDLI-7 was reduced to amine in a model study. […] The disulfide group of para-nitropyridyl disulfidemethyl lenalidomide cDLI-8 was reduced in a model study.

A short description of data set [2]: stability of cDLI under conjugation conditions. The format is physicochemical. To be noted: pH 8.5, 3 and 10 equivalents, 3 hours and overnight; LC/MS.
Data set [3] is described as follows: cDLI stability in whole blood. Type of data set: in vitro ADME.
A short description of data set [4]: release of lenalidomide and hydrolysis of sulfonyl-thio cDLI. The format is in vitro ADME. Particulars: with and without methyl adjacent to the glutarimide nitrogen.
Data set [5] relates to proteases. Nature of the data set: protease cleavage of cDAC made with cDLI. To be noted: presence of proteases; cDAC of cDLI-6 variants. Type of data set: in vitro ADME.
The subject of data set [6] is KPL-4 cells (HER2+). The experiment in a line: cell proliferation assay (CellTiter-Glo), KPL-4. Type of data set: cell-based. Particulars: KPL4, 120 h; cereblon degrader compound, 5 days; read-out: IC50 anti-proliferative. From the text:
(§1) The CellTiter-Glo® Luminescent Cell Viability Assay is a commercially available (Promega Corp., Madison, WI), homogeneous assay method based on the recombinant expression of Coleoptera luciferase (U.S. Pat. Nos. 5,583,024; 5,674,713; 5,700,670). This cell proliferation assay determines the number of viable cells in culture based on quantitation of the ATP present, an indicator of metabolically active cells (Crouch et al (1993) J. Immunol. Meth. 160:81-88; U.S. Pat. No. 6,602,677). The CellTiter-Glo® Assay was conducted in 96 well format, making it amenable to automated high-throughput screening (HTS) (Cree et al (1995) AntiCancer Drugs 6:398-404). […] Data can be recorded by luminometer or CCD camera imaging device. The luminescence output is expressed as relative light units (RLU). […]
(§2) Efficacy of the cDAC was measured by a cell proliferation assay employing the following protocol ([…] GLO™ Luminescent Cell Viability Assay, Promega Corp. Technical Bulletin TB288; Mendoza et al. (2002) Cancer Res. 62:5485-5488): • 1. […] The plate was incubated at room temperature for 5 minutes to stabilize the luminescence signal. • 8. Luminescence was recorded and reported in graphs as % activity where RLU (relative luminescence units) was normalized to controls (no antibody control minus no cell control). […]

Data set [7] has as its system SK-BR-3 cells (HER2+). Nature of the data set: cell proliferation assay (CellTiter-Glo), SK-BR-3. Type of data set: cell-based. To be noted: Homo sapiens, SK-BR-3, 120 h; cereblon degrader compound, 5 days; read-out: IC50 anti-proliferative.
Excerpt: as §1, §2
(In general: ATP-based viability assays read luminescence as a measure of living cells.)

The values below come from patent publication US20260355331A1, “CEREBLON DEGRADER CONJUGATES, AND USES THEREOF” (GENENTECH, INC., priority 2022, published 2026).

With `O=C1CCC(N2Cc3ccccc3C2=O)C(=O)N1CSSc1ccc([N+](=O)[O-])cn1` (stereo not drawn) [cDLI-8, 1-(((5-nitropyridin-2-yl)disulfaneyl)methyl)-3-(1-oxoisoindolin-2-yl)piperidine-2,6-dione], the “cleavage to release lenalidomide (in words)” value in data set [1] is reported as “No cleavage of the disulfide group was observed”.
For the compound `CC(C)(C)OC(=O)Nc1cccc2c1CN(C1CCC(=O)N(C(=O)OCC(C)(C)SS(C)(=O)=O)C1=O)C2=O` (stereo not drawn) [cDLI-1, 2-methyl-2-((methylsulfonyl)thio)propyl 3-(4-((tert-butoxycarbonyl)amino)-1-oxoisoindolin-2-yl)-2,6-dioxopiperidine-1-carboxylate], the “stability under conjugation conditions (in words)” value in data set [2] is “too unstable under these conditions for conjugation”.
Consider `O=C1C=CC(=O)N1CCSN1C(=O)CCC(N2Cc3ccccc3C2=O)C1=O` (stereo not drawn) [cDLI-4, 1-((2-(2,5-dioxo-2,5-dihydro-1H-pyrrol-1-yl)ethyl)thio)-3-(1-oxoisoindolin-2-yl)piperidine-2,6-dione], for which, in data set [3], the “stability in whole blood (in words)” value is “not stable in whole blood”.
As for `O=C1CCC(N2Cc3ccccc3C2=O)C(=O)N1COCc1ccc([N+](=O)[O-])cc1` (stereo not drawn) [cDLI-7, 1-(((4-nitrobenzyl)oxy)methyl)-3-(1-oxoisoindolin-2-yl)piperidine-2,6-dione], the “cleavage to release lenalidomide (in words)” value in data set [1] is recorded as “No cleavage of the para-aminobenzyloxy group was observed”.
In the case of `CC(OC(=O)OCN1C(=O)CCC(N2Cc3ccccc3C2=O)C1=O)C(C)SS(C)(=O)=O` (stereo not drawn) [cDLI-9, S-(3-((((2,6-dioxo-3-(1-oxoisoindolin-2-yl)piperidin-1-yl)methoxy)carbonyl)oxy)butan-2-yl)methanesulfonothioate], in data set [2], the “stability under conjugation conditions (in words)” value is reported as “Hydrolysis of the carbonate bond was observed”. For the same compound, in data set [4], the “release of lenalidomide (in words)” value is recorded as “cleaved to release detectable lenalidomide” and the “stability (in words)” value is recorded as “not stable, generating hydrolysis products”.
With “6-(2,5-dioxo-2,5-dihydro-1H-pyrrol-1-yl)-N-((2S)-1-(((2S)-1-((4-((2,6-dioxo-3-(1-oxoisoindolin-2-yl)piperidin-1-yl)methyl)phenyl)amino)-1-oxopropan-2-yl)amino)-3-methyl-1-oxobutan-2-yl)hexanamide [cDLI-6]”, in data set [5], the “cleavage by proteases (in words)” value is listed as “failed to cleave in the presence of proteases”.
`Cn1cc2c3c(c[nH]c3c1=O)CN(c1ncc(F)cc1F)c1cc(C(=O)NCCCCCCCNc3cccc4c3CN(C3CCC(=O)NC3=O)C4=O)c(CS(C)(=O)=O)cc1-2` (stereo not drawn) [cD-5, 4-(3,5-difluoropyridin-2-yl)-N-(7-((2-(2,6-dioxopiperidin-3-yl)-1-oxoisoindolin-4-yl)amino)heptyl)-10-methyl-7-((methylsulfonyl)methyl)-11-oxo-3,4,10,11-tetrahydro-1H-1,4,10-triazadibenzo[cd,f]azulene-6-carboxamide]: the IC50 in data set [6] came out at 0.65 nM; in data set [7] it was 0.41 nM.
As to `CC(C)(CSS(C)(=O)=O)OC(=O)OCN1C(=O)CCC(N2Cc3ccccc3C2=O)C1=O` (stereo not drawn) [cDLI-10, S-(2-((((2,6-dioxo-3-(1-oxoisoindolin-2-yl)piperidin-1-yl)methoxy)carbonyl)oxy)-2-methylpropyl) methanesulfonothioate], the “stability under conjugation conditions (in words)” value in data set [2] is “Hydrolysis of the carbonate bond was observed”.
For the compound `CC(CN1C(=O)C=CC1=O)SN1C(=O)CCC(N2Cc3ccccc3C2=O)C1=O` (stereo not drawn) [cDLI-5, 1-((1-(2,5-dioxo-2,5-dihydro-1H-pyrrol-1-yl)propan-2-yl)thio)-3-(1-oxoisoindolin-2-yl)piperidine-2,6-dione], the “stability in whole blood (in words)” value in data set [3] is given as “not stable in whole blood”.

What is called IC50 is the concentration that gives 50% inhibition.
